In publication PMC8121067 (Journal of Cell Science, 2021):
Where “and” joins values, the source holds several entries; their conditions need not be identical. Identical values can stand only once. Entries after “also recorded” stand apart in the source; their conditions may differ. Marks after values point to notes of the source that are not given here.

Key:
[1] = tested on: rabbit skeletal muscle myosin 2 HMM; assay: gliding actin in vitro motility assay; format: biochemical
Text: Here, skeletal muscle myosin 2 HMM is bound to a nitrocellulose-coated coverslip and its ability to translocate Rhodamine–phalloidin-labeled actin filaments observed (Table 1). […] The lack of reversibility could be due to covalent modification of myosin by SMIFH2. […] A higher drug concentration was required to achieve ∼50% of the gliding velocity than was required for similar inhibition of the actin-activated ATPase. This was also observed when blebbistatin was used to inhibit actin gliding ([Limouze et al., 2004]; [Sakamoto et al., 2005]).
The gliding actin in vitro motility assay was conducted at 30°C in 50 mM KCl, 4 mM MgCl2, 0.1 mM EGTA, 30 mM MOPS pH 7.2, 0.5% methylcellulose, 1 mM ATP, using an oxygen-savaging system consisting of 2.5 μg/ml glucose oxidase, 45 μg/ml catalase, 2.5 mg/ml glucose and […] DTT ([Sellers et al., 1993]). The rate of movement of actin filaments was determined as described previously ([Homsher et al., 1992]).

MLCK = MLCK (Homo sapiens, UniProt Q15746); assay: myosin light chain kinase phosphorylation of non-muscle myosin 2A (HPLC-mass spectrometry); format: biochemical; details: 100 μM
REF52 fibroblast = assay: traction force microscopy in living cells; format: cell-based, rat; details: 30 μM, within 10 min
Procedure: Traction force microscopy with embedded beads was performed as described previously ([Rafiq et al., 2019]). Briefly, soft polydimethylsiloxanes CY 52-276A and CY 52-276B (Dow Corning, 0008602722) were mixed at the ratio 1:1 and Sylgard 184 crosslinker was used to tune the stiffness of the gel for proper force measurement of cells (∼95 kPa). The mixture was spin-coated onto a clean coverslip to achieve the thickness of ∼7 μm and cured for 1 h at 80°C. The surface of the gel was silanized with (3-aminopropyl)triethoxysilane for 2 h, followed by incubation of 0.04 μm FluoSpheres carboxylate-modified microspheres, dark red fluorescent (660/680) beads (Thermo Fisher Scientific, 1871942) at 1×10^6 beads/ml in a solution of 0.1 M NaHCO3 for 30 min. Before seeding the cells, the coverslips with beads were further incubated for 30 min with 10 μg/ml fibronectin, also dissolved in 0.1 M NaHCO3. Traction forces were calculated from bead displacement fields visualized by using live cell imaging as described by [Tseng et al. (2012)], and using the online ImageJ plugin (https://sites.google.com/site/qingzongtseng/tfm for plugin software details). The computation algorithm as published by [Sabass et al. (2008)] was used. The distribution of traction force magnitude was presented as a heat map (Fig. 1A), and mean magnitude values were calculated for each cell.

[2] = tested on: Formins: CYK-1, Cdc12 and Fus1, Bn1, mDia2; design: method as in Rizvi et al., 2009; details: CYK-1, Cdc12, Fus1, Bn1, mDia2; ref Rizvi et al., 2009; read-out: IC50 values for formins from a variety of species; cited from earlier work
Drosophila myosin 5 = Drosophila myosin 5 (Drosophila melanogaster, UniProt A1Z6Z9); assay: actin-activated ATPase assay (NADH-linked); format: biochemical; details: approximate
Text: (§1) There are 40 myosin heavy chain genes from twelve classes in the human genome ([Berg et al., 2001]). Many, but not all of these myosins are present in other metazoan species including Drosophila ([Yamashita et al., 2000]). Although all of these myosins contain a conserved motor domain, the tail portions are very diverse, allowing the myosins to perform a plethora of cellular functions. […] The assays regarding bovine myosin 10 are particularly interesting since this myosin plays a role in filopodia initiation and formation in mammalian cells ([Kerber and Cheney, 2011]), a process that also involves formin action.
(§2) A heavy meromyosin (HMM)-like fragment of human non-muscle myosin 2A was prepared by expression in Sf9 insect cells as described ([Kengyel et al., 2010]). Cells were co-infected with a virus driving the expression of the truncated myosin heavy chain as well as one driving the expression of regulatory and essential light chains. The myosin was phosphorylated through smooth muscle myosin light chain kinase (MLCK) prior to use ([Nagy et al., 2013]). Full-length Drosophila myosin 5 ([Lu et al., 2020]), Drosophila myosin 7a ([Yang et al., 2009]) and a forced dimeric HMM-like fragment of bovine myosin 10 ([Takagi et al., 2014]) were also produced in Sf9 cells. Drosophila myosin 5 was co-expressed with Drosophila ELC and calmodulin, whereas the HMM-like fragment of myosin 10 was co-expressed with calmodulin. Skeletal muscle HMM was produced by chymotrypic digestion of full-length rabbit fast skeletal muscle myosin ([Margossian and Lowey, 1982]). Rabbit skeletal muscle actin was prepared as previously described ([Lehrer and Kerwar, 1972]).
(§3) Actin-activated ATPase assays were carried out using an NADH-linked assay in a Cary 50 spectrophotometer as previously described ([Heissler et al., 2015]). […] The final amount of DMSO added to the samples was 2%. The assay conditions were 10 µM actin, 50 mM KCl, 10 mM MOPS, 2 mM MgCl2, 0.1 mM EGTA, 1 mM ATP, 10 mM MOPS pH 7.0 at 25°C. […] Absorbance was monitored at 340 nm.

bovine myosin 10 = molecular target: T1, bovine myosin 10 (Bos taurus, UniProt P79114); assay: actin-activated ATPase assay (NADH-linked); format: biochemical; details: approximate
T1 construct: a forced dimeric HMM-like fragment of bovine myosin 10; dimerisation element (forced dimer); made in house; host or cells: Sf9 cells
Text: as §1, §2, §3

Drosophila myosin 7a = molecular target: T2, Drosophila myosin 7a (Drosophila melanogaster, UniProt Q9V3Z6); assay: actin-activated ATPase assay (NADH-linked); format: biochemical; details: approximate
T2 construct: made in house; host or cells: Sf9 cells
Text: as §1, §2, §3

pure actin = tested on: pure actin; design: method as in Rizvi et al., 2009; details: ref Rizvi et al., 2009; cited from earlier work
[3] = tested on: permeabilized REF52 cells; assay: ATP-dependent ventral stress fiber retraction in Triton X-100-permeabilized cells; format: cell-based, rat
Text: Detergent treatment leads to depletion of all soluble factors from the cells and, in particular, of ATP. Supplementing the medium with ATP induces the myosin 2-dependent contraction of stress fibers. […] We locally photoconverted spots along the length of ventral stress fibers, and tracked both retraction of the unconverted stress fiber ends and longitudinal movements of the photoconverted actin spots after adding ATP into the solution (Fig. 1C, left panel).
For stress fiber imaging, REF52 cells were transfected with mEos3.2-Actin expression plasmid and seeded onto a 35 mm glass bottom dish (Iwaki, 3930-035) 24 h prior to the assay.
The protocol of the cell permeabilization and cytoskeleton contractility assay has been described previously ([Tee and Bershadsky, 2016]; [Tee et al., 2015]). […] All drug remained in the buffer during the entire period of observation.

[4] = molecular target: T3, human non-muscle myosin 2A (Homo sapiens, UniProt P35579); assay: actin-activated ATPase assay (NADH-linked); format: biochemical; details: phosphorylated by MLCK; 10 µM actin, 25°C; approximate; read-out: IC50, actin-activated MgATPase activity
T3 construct: A heavy meromyosin (HMM)-like fragment of human non-muscle myosin 2A; made in house; host or cells: Sf9 insect cells (baculovirus co-infection)
Procedure: (§4) Two methods are primarily used to assess actomyosin function in vitro. […] In the absence of actin, myosins have very low basal ATPase rates that are activated 10–1000-fold by the addition of actin ([De La Cruz and Ostap, 2009]).
as §2, with “Rabbit skeletal muscle actin was prepared as previously described ([Lehrer and Kerwar, 1972]).” left out
(§5) Actin-activated ATPase assays were carried out using an NADH-linked assay in a Cary 50 spectrophotometer as previously described ([Heissler et al., 2015]). […] Absorbance was monitored at 340 nm. […]

[5] = molecular target: rabbit skeletal muscle myosin 2; assay: actin-activated ATPase assay (NADH-linked); format: biochemical; details: tissue purified, mixed isoforms; approximate
Procedure: as §4
as §2, with “Rabbit skeletal muscle actin was prepared as previously described ([Lehrer and Kerwar, 1972]).” left out
as §5

HFF cells = assay: centripetal movement of myosin 2 filaments at transverse arcs in living cells (PIV); format: cell-based, human; details: treated 45 min, 12.5, 25 or 50 μM
Text: (§6) We also tested inhibition of contraction of another type of contractile actomyosin structure, i.e. of the transverse arcs formed by periodically arranged myosin and actin filaments in fibroblasts ([Hu et al., 2017]). We measured the velocity of movement of transverse arcs in human foreskin fibroblast (HFF) cells plated on a circular fibronectin island ([Tee et al., 2015]). In control cells, filaments of non-muscle myosin 2 were visualized by expression of GFP-tagged myosin regulatory light chain (GFP-MRLC) localized to the transverse arcs and moved towards the cell center with an average velocity of 0.152 μm/min, as determined by particle image velocimetry (PIV) (Fig. 2A) ([Hu et al., 2017)]. […] Permeabilization of the same cells by using Triton X-100 removed G-actin and ATP. […]
(§7) Particle Image Velocimetry (PIV) analysis was used to measure average instantaneous speed of filaments of non-muscle myosin 2 visualized by expression of GFP-MRLC. […] To quantify the retraction speed of stress fiber ends, we manually selected all ends labeled by unconverted mEOS3.2-actin and arranged them into kymographs for every cell. The retraction speed for each end during imaging was calculated manually using the kymograph. The average retraction speed of stress fibers was calculated for each cell and plotted.

permeabilized HFF cells = assay: ATP-induced centripetal movement of myosin 2 filaments in permeabilized cells (PIV); format: cell-based, human; details: 50 μM
Text: as §6, §7

mDia1 = tested on: mDia1; design: method as in Rizvi et al., 2009; details: actin assembly in the presence of profilin in vitro; ref Rizvi et al., 2009; read-out: Half-maximal inhibition of mDia1; cited from earlier work

T3 sequence (P35579 1-1337 limits assumed): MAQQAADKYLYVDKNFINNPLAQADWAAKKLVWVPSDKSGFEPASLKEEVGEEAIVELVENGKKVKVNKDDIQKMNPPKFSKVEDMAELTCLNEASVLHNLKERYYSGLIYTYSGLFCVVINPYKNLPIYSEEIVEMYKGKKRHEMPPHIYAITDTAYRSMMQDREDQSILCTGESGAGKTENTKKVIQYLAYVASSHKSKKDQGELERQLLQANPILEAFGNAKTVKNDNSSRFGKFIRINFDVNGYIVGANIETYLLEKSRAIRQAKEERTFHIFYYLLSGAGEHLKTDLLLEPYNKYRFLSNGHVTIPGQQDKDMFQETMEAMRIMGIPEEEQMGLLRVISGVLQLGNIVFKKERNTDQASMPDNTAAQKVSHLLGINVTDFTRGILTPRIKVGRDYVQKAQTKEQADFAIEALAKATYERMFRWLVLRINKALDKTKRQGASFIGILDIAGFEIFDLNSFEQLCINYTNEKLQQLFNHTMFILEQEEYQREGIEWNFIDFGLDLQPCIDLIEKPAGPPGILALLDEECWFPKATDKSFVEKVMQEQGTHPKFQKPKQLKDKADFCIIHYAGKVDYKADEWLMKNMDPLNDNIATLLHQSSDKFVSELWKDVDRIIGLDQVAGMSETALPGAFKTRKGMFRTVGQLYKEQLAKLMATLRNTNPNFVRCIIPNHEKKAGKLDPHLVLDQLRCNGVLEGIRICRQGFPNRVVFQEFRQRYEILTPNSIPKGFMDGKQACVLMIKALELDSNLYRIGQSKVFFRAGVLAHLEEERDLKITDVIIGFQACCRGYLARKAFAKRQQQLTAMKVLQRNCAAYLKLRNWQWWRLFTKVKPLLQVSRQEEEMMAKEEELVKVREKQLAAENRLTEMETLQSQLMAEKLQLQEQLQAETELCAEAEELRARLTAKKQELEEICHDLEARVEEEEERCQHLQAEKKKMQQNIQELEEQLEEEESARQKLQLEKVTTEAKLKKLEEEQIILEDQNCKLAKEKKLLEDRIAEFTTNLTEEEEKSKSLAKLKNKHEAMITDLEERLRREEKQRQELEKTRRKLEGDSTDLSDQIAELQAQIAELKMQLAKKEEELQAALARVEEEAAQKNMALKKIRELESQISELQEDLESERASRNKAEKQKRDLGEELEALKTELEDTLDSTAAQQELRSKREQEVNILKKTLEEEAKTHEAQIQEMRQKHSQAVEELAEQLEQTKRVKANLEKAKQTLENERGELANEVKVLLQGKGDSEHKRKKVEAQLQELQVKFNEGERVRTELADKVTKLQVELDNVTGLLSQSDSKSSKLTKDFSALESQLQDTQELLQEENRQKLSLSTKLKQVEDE
T3 sequence (O14950 2-172 partner limits assumed): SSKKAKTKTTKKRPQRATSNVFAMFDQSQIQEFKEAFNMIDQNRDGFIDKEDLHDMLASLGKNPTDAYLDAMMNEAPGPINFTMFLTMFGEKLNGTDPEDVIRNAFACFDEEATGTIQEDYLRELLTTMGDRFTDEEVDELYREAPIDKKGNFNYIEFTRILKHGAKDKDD
T3 sequence (P60660 2-151 partner limits assumed): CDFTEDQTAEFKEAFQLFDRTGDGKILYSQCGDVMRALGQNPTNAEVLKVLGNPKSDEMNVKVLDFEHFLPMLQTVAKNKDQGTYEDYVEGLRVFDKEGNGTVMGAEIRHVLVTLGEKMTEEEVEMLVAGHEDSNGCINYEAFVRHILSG
Sequence of MLCK (Q15746 923-1914): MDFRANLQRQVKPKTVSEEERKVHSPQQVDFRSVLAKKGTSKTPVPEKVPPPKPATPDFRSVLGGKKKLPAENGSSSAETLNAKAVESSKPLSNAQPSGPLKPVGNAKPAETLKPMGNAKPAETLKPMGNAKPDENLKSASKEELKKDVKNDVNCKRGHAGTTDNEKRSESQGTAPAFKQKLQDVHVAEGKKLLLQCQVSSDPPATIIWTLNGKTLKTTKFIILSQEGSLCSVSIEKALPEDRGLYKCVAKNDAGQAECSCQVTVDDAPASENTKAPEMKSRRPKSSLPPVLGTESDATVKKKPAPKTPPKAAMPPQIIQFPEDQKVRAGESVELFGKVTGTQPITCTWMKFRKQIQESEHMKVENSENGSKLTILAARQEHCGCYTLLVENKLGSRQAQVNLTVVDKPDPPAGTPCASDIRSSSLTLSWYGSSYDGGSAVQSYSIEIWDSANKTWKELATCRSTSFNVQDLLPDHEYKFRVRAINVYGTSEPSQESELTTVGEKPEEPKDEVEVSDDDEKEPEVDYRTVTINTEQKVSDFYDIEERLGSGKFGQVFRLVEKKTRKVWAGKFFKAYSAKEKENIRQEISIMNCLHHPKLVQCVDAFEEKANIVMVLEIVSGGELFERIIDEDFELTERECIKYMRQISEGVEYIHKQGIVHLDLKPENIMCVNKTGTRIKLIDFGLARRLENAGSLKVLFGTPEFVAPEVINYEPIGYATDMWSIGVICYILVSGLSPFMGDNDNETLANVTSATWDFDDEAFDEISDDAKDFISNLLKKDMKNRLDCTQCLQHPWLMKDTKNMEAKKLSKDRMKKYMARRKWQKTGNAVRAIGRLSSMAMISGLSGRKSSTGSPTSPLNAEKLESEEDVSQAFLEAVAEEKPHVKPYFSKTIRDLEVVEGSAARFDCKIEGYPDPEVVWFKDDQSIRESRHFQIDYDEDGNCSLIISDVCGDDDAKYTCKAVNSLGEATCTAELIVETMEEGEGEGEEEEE
T1 sequence (P79114 other isoform, or with tags, fused parts or gaps): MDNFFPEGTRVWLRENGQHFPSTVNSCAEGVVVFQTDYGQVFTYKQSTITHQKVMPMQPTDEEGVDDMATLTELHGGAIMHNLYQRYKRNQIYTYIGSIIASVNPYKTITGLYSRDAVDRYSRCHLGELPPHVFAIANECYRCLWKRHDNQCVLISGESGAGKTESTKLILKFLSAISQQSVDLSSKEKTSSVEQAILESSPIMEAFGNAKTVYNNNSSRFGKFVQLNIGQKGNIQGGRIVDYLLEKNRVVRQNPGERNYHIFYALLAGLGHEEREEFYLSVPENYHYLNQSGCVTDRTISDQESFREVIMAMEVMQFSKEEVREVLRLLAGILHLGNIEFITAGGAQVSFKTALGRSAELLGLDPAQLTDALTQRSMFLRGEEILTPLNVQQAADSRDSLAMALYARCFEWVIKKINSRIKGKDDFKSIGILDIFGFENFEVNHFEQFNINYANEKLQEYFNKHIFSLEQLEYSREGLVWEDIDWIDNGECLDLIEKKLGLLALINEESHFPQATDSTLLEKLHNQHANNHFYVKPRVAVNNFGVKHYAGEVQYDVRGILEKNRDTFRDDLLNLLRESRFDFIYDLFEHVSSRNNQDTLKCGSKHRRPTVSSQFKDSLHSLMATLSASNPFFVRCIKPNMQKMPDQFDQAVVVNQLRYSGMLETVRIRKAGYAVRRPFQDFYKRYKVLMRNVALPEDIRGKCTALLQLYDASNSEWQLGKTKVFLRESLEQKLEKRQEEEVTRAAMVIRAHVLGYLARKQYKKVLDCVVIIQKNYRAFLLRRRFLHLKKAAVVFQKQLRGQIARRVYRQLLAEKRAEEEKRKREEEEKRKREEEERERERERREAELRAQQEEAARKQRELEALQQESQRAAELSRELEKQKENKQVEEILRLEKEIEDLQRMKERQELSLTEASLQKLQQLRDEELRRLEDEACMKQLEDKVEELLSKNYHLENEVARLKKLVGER

Compound	Velocity of actin filaments ([1]; 50 μM SMIFH2)	Velocity of actin filaments ([1]; 100 μM SMIFH2)	Velocity of actin filaments ([1]; 150 μM SMIFH2)	Velocity of actin filaments ([1]; 150 μM SMIFH2 followed by washout)	Velocity of actin filaments ([1]; 200 μM SMIFH2)	inhibition of MLCK activity (MLCK)	effect on traction forces exerted by cells (REF52 fibroblast)	IC50 [2]	IC50 (Drosophila myosin 5)	IC50 (bovine myosin 10)	IC50 (Drosophila myosin 7a)	effect on assembly of pure actin (pure actin)	inhibition of ATP-induced retraction of stress fiber ends (contractility) ([3]; >100 μM SMIFH2)	inhibition of ATP-induced retraction of stress fiber ends ([3]; ∼50μM SMIFH2)	IC50 [4]	IC50 [5]	velocity of centripetal movement of transverse arcs (myosin 2 filaments) (HFF cells)	ATP-induced centripetal movement of myosin 2 filaments (permeabilized HFF cells)	IC50 (mDia1)	inhibition of ATP-induced retraction of stress fiber ends (contractility) ([3]; 100 μM pAB)
O=C1NC(=S)N(c2cccc(Br)c2)C(=O)C1=Cc1ccco1 [SMIFH2]	4.1* μm/s	4.1* μm/s	completely abolished; also recorded: No movement	could not be reversed; also recorded: No movement	No movement	no effect; also recorded: did not inhibit	inhibition of traction forces	5 to 15 µM	2 µM and ~2 µM	15 µM and ~15 µM	30 µM and ~30 µM	did not affect	complete inhibition	~50%	50 µM and ~50 µM	~40 µM	decreased in dose-dependent manner	blocked centripetal movement	~15 µM	
Cc1ccc2c(c1)C(=O)[C@]1(O)CCN(c3ccc(N)cc3)C1=N2 [pAB, para-aminoblebbistatin]																				complete inhibition
